In experiment [1] the target is His tagged CRBN+DDB−DLS7+CXU4 (Homo sapiens (Human), UniProt Q96SW2). The experiment can be described thus: IC50 Measurements for Binding to CRBN/DDBI (HTRF). Conditions: Cy5-labeled Thalidomide probe, one hour incubation.
The target in another experiment is IKZF1 (Homo sapiens (Human), UniProt Q13422+Q96SW2). Kind of experiment: IKZF1 HiBit Assay (HEK293T Flp-in-HiBiT-IKZF1 stable cell line). The class given is cell-based. As to conditions: HEK293T Flp-in-HiBiT-IKZF1 cells, 6 hrs; for DC50: read-out: IKZF1 HiBit degradation DC50; for Dmax: HEK-293T, read-out: IKZF1 HiBit degradation Dmax. In a few lines:
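HEK293T Flp-in cells with CRISPR-inserted N-terminal HiBiT tag treated 6 h with 11-point threefold dilutions (0.1% DMSO). Nano-Glo HiBiT lytic luminescence normalised to DMSO gave the 50%-degradation concentration; Dmax taken as the luminescence range from highest to lowest concentration.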

Another experiment has as its target IKZF2 (Homo sapiens (Human), UniProt Q96SW2+Q9UKS7). The experiment can be described thus: IKZF2 HiBit Assay (HEK293T Flp-in-HiBiT cells). The class given is cell-based. As to conditions: HEK293T Flp-in-HiBiT cells, 6 hrs; for DC50: read-out: IKZF2 HiBit degradation DC50; for Dmax: HEK-293T, read-out: IKZF2 HiBit degradation Dmax. In a few lines:
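HEK293T Flp-in cells carrying CRISPR-inserted N-terminal HiBiT tag at the endogenous IKZF2 locus were treated with an 11-point, 3-fold dilution from 1 mM (stock) for 6 hrs; final DMSO 0.1%. HiBiT luminescence was detected after lysis with LgBiT/substrate reagent. DMSO-normalized curves gave 50% degradation concentration and Dmax.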

Chain of His tagged CRBN+DDB−DLS7+CXU4 (Q96SW2 whole entry): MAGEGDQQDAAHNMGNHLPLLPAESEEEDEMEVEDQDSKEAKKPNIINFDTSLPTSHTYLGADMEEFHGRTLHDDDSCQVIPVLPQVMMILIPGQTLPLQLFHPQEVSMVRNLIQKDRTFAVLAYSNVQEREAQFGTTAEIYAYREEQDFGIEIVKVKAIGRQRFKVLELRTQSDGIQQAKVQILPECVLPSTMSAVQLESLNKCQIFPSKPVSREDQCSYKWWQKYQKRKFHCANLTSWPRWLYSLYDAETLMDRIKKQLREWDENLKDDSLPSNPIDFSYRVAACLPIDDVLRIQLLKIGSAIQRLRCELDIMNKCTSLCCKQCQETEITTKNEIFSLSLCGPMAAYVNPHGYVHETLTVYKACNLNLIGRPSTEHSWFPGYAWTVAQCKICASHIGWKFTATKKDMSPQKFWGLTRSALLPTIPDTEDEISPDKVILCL
Chain of His tagged CRBN+DDB−DLS7+CXU4 (Q16531 whole entry partner): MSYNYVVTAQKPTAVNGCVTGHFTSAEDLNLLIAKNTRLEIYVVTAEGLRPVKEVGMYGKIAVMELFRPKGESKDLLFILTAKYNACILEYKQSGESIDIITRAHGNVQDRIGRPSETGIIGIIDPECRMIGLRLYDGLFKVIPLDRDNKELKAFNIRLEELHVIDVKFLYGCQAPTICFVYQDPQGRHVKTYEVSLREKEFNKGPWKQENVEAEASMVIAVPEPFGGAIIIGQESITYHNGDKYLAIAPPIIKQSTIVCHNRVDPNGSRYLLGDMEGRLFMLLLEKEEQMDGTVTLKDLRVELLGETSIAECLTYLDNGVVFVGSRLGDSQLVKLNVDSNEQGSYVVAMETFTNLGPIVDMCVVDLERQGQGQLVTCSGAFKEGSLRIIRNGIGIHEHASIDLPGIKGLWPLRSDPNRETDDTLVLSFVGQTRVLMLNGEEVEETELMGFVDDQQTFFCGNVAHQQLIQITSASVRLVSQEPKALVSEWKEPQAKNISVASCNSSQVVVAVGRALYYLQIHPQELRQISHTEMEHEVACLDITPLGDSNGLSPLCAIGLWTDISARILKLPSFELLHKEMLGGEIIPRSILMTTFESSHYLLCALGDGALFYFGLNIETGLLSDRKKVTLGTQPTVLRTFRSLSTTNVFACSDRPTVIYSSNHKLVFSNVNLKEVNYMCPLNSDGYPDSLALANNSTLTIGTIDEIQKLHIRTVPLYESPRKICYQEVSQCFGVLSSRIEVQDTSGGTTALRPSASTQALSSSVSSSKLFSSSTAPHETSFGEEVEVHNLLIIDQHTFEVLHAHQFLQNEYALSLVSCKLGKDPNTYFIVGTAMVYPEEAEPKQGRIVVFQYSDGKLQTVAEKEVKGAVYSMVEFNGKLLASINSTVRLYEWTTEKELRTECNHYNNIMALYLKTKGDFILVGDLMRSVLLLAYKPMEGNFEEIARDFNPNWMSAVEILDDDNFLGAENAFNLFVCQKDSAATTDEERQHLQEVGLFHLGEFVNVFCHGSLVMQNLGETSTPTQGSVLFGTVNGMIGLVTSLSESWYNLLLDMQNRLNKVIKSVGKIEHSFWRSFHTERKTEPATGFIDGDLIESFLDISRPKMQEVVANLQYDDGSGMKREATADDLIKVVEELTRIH
Chain of IKZF1 (Q13422 whole entry): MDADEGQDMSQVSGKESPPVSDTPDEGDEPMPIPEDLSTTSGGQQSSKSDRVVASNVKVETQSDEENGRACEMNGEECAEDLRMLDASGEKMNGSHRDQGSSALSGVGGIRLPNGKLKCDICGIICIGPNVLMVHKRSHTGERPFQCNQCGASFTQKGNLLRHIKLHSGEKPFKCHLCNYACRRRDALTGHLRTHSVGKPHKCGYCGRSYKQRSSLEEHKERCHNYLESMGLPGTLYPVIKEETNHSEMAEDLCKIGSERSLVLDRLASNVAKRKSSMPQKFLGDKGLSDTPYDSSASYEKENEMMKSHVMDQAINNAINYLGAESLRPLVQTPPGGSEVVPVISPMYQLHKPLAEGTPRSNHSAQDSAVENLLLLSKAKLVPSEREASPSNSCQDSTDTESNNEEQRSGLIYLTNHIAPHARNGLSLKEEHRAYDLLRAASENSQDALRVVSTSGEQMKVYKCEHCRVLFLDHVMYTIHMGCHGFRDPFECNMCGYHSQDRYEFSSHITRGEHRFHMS
Chain of IKZF1 (Q96SW2 whole entry): as the sequence (Q96SW2 whole entry) above
Chain of IKZF1 (Q16531 whole entry partner): as the sequence (Q16531 whole entry partner) above
Chain of IKZF2 (Q9UKS7 whole entry): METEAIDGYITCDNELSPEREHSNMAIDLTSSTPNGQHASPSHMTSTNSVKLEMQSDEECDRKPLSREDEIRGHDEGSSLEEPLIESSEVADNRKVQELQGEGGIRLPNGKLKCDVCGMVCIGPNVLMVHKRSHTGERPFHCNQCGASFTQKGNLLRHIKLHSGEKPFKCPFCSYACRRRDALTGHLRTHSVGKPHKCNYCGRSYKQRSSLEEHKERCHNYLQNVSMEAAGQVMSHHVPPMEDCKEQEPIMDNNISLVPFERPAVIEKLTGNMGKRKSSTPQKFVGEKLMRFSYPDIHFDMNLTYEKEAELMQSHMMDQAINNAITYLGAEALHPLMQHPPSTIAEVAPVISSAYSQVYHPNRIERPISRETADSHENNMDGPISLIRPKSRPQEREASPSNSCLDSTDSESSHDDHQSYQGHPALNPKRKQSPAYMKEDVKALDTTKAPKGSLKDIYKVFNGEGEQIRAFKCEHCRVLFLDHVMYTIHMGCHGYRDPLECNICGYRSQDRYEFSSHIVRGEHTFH
Chain of IKZF2 (Q96SW2 whole entry): as the sequence (Q96SW2 whole entry) above
Chain of IKZF2 (Q16531 whole entry partner): as the sequence (Q16531 whole entry partner) above

`Cn1cc(-c2cccc(CN3CCC4(CC3)COc3c4cc(F)c4c3CN([C@H]3CCC(=O)NC3=O)C4=O)c2)cn1` [Compound B16, (S)-3-(5-fluoro-1′-(3-(1-methyl-1H-pyrazol-4-yl)benzyl)-6-oxo-6,8-dihydro-2H,7H-spiro[furo[2,3-e]isoindole-3,4′-piperidin]-7-yl)piperidine-2,6-dione] displayed an IC50 in experiment [1] of 100 to 500 nM. Further, on IKZF1, the DC50 was more than 1000 nM and the Dmax is less than 20%. In addition, on IKZF2, the DC50 lay in the range of 1 to 10 nM and the Dmax was in the range of 40 to 60%.
`Cn1ncc2cccc(CN3CCC4(COc5c4ccc4c5CN([C@H]5CCC(=O)NC5=O)C4=O)C(F)(F)C3)c21` (stereo partly drawn) [Compound B45, (3S)-3-(3′,3′-difluoro-1′-((1-methyl-1H-indazol-7-yl)methyl)-6-oxo-6,8-dihydro-2H,7H-spiro[furo[2,3-e]isoindole-3,4′-piperidin]-7-yl)piperidine-2,6-dione] yielded an IC50 in experiment [1] of 100 to 500 nM. Besides, at IKZF1, the DC50 was in the range of 10 to 100 nM and the Dmax was 20 to 40%. On IKZF2, the DC50 lay in the range of 1 to 10 nM and the Dmax was more than 80%.
The like results for `O=C1CC[C@H](N2Cc3c(ccc4c3OCC43CCN(Cc4ccc5[nH]ncc5c4)CC3(F)F)C2=O)C(=O)N1` (stereo partly drawn) [Compound B40, (3S)-3-(1′-((1H-indazol-5-yl)methyl)-3′,3′-difluoro-6-oxo-6,8-dihydro-2H,7H-spiro[furo[2,3-e]isoindole-3,4′-piperidin]7-yl) piperidine-2,6-dione] were, in that order, 100 to 500 nM, more than 1000 nM, less than 20%, 1 to 10 nM and 60 to 80%.
`CC1CN(Cc2cccc(-c3cnn(C)c3)c2)CCC12COc1c2ccc2c1CN(C1CCC(=O)NC1=O)C2=O` (centres unmarked) [Compound B21, 3-(3′-methyl-1′-(3-(1-methyl-1H-pyrazol-4-yl)benzyl)-6-oxo-6,8-dihydro-2H,7H-spiro[furo[2,3-e]isoindole-3,4′-piperidin]-7-yl)piperidine-2,6-dione]: in experiment [1], the IC50 was 100 to 500 nM. Moreover, at IKZF1, the DC50 is more than 1000 nM and the Dmax is less than 20%. Besides, on IKZF2, the DC50 fell in the range of 1 to 10 nM and the Dmax was in the range of 20 to 40%.
The corresponding values for `Cn1cc2ccc(CN3CCC4(COc5c4ccc4c5CN([C@H]5CCC(=O)NC5=O)C4=O)C(F)(F)C3)cc2n1` (stereo partly drawn) [Compound B35, (3S)-3-(3′,3′-difluoro-1′-((2-methyl-2H-indazol-6-yl)methyl)-6-oxo-6,8-dihydro-2H,7H-spiro[furo[2,3-e]isoindole-3,4′-piperidin]-7-yl)piperidine-2,6-dione] are less than 100 nM, more than 1000 nM, less than 20%, 1 to 10 nM and 60 to 80%.
The like results for `Cn1ncc2c(CN3CCC4(COc5c4ccc4c5CN([C@H]5CCC(=O)NC5=O)C4=O)C(F)(F)C3)cccc21` (stereo partly drawn) [Compound B43, (3S)-3-(3′,3′-difluoro-1′-((1-methyl-1H-indazol-4-yl)methyl)-6-oxo-6,8-dihydro-2H,7H-spiro[furo[2,3-e]isoindole-3,4′-piperidin]-7-yl)piperidine-2,6-dione] were, in that order, 1000 to 5000 nM, more than 1000 nM, less than 20%, 1 to 10 nM and 60 to 80%.
The like results for `Cn1cc2cccc(CN3CCC4(COc5c4ccc4c5CN([C@H]5CCC(=O)NC5=O)C4=O)C(F)(F)C3)c2n1` (stereo partly drawn) [Compound B36, (3S)-3-(3′,3′-difluoro-1′-((2-methyl-2H-indazol-7-yl)methyl)-6-oxo-6,8-dihydro-2H,7H-spiro[furo[2,3-e]isoindole-3,4′-piperidin]-7-yl)piperidine-2,6-dione] were, in that order, 100 to 500 nM, less than 1 nM, 20 to 40%, 1 to 10 nM and 60 to 80%.
On to `Cn1cc(-c2cccc(CN3CC[C@@]4(COc5c4ccc4c5CN([C@H]5CCC(=O)NC5=O)C4=O)C(F)(F)C3)c2)cn1` [Compound B52, (S)-3-((R)-3′,3′-difluoro-1′-(3-(1-methyl-1H-pyrazol-4-yl)benzyl)-6-oxo-6,8-dihydro-2H,7H-spiro[furo[2,3-e]isoindole-3,4′-piperidin]-7-yl)piperidine-2,6-dione], for which the IC50 in experiment [1] was in the range of 100 to 500 nM. For the same compound, the DC50 is more than 1000 nM at IKZF1 and 1 to 10 nM at IKZF2. Also, the Dmax at IKZF1 is less than 20%; at IKZF2 it was 40 to 60%.
In experiment [1], `[2H]C([2H])([2H])n1cc(-c2cccc(CN3CCC4(COc5c4ccc4c5CN([C@H]5CCC(=O)NC5=O)C4=O)C(F)(F)C3)c2)cn1` (stereo partly drawn) [Compound B49, (3S)-3-(3′,3′-difluoro-1′-(3-(1-(methyl-d3)-1H-pyrazol-4-yl)benzyl)-6-oxo-6,8-dihydro-2H,7H-spiro[furo[2,3-e]isoindole-3,4′-piperidin]-7-yl) piperidine-2,6-dione] showed an IC50 of 100 to 500 nM. For the same compound, on IKZF1, the DC50 is more than 1000 nM and the Dmax is less than 20%. Also, on IKZF2, the DC50 was less than 1 nM and the Dmax was more than 80%.
The like results for `O=C1CC[C@H](N2Cc3c(ccc4c3OCC43CCN(Cc4cnn(-c5ccc(Cl)cc5)c4)CC3(F)F)C2=O)C(=O)N1` (stereo partly drawn) [Compound B30, (3S)-3-(1′-((1-(4-chlorophenyl)-1H-pyrazol-4-yl)methyl)-3′,3′-difluoro-6-oxo-6,8-dihydro-2H,7H-spiro[furo[2,3-e]isoindole-3,4′-piperidin]-7-yl)piperidine-2,6-dione] were, in that order, 1000 to 5000 nM, more than 1000 nM, less than 20%, 1 to 10 nM and 60 to 80%.
In the case of `Cn1cc2c(CN3CCC4(COc5c4ccc4c5CN([C@H]5CCC(=O)NC5=O)C4=O)C(F)(F)C3)cccc2n1` (stereo partly drawn) [Compound B42, (3S)-3-(3′,3′-difluoro-1′-((2-methyl-2H-indazol-4-yl)methyl)-6-oxo-6,8-dihydro-2H,7H-spiro[furo[2,3-e]isoindole-3,4′-piperidin]-7-yl)piperidine-2,6-dione], in experiment [1], the IC50 was in the range of 100 to 500 nM. On IKZF1, the DC50 is more than 1000 nM and the Dmax was less than 20%. Further, on IKZF2, the DC50 was in the range of 1 to 10 nM and the Dmax is 60 to 80%.
`O=C1CC[C@H](N2Cc3c(ccc4c3OCC43CCN(Cc4cn(-c5ccc(Cl)cc5)nc4C(F)(F)F)CC3)C2=O)C(=O)N1` [Compound B5, (S)-3-(1′-((1-(4-chlorophenyl)-3-(trifluoromethyl)-1H-pyrazol-4-yl)methyl)-6-oxo-6,8-dihydro-2H,7H-spiro[furo[2,3-e]isoindole-3,4′-piperidin]-7-yl)piperidine-2,6-dione] returned an IC50 in experiment [1] of 100 to 500 nM. Also, on IKZF1, the DC50 was more than 1000 nM and the Dmax was less than 20%. In addition, on IKZF2, the DC50 lay within 1 to 10 nM and the Dmax was in the range of 60 to 80%.
Turning to `Cn1cc(-c2cccc(CN3CCC4(COc5c4ccc4c5CN([C@H]5CCC(=O)NC5=O)C4=O)C(F)(F)C3)c2)cn1` (stereo partly drawn) [Compound B39, (3S)-3-(3′,3′-difluoro-1′-(3-(1-methyl-1H-pyrazol-4-yl)benzyl)-6-oxo-6,8-dihydro-2H,7H-spiro[furo[2,3-e]isoindole-3,4′-piperidin]-7-yl) piperidine-2,6-dione], the IC50 in experiment [1] lay within 100 to 500 nM. The DC50 at IKZF1 was more than 1000 nM; on IKZF2, less than 1 nM. In addition, the Dmax on IKZF1 was less than 20%; on IKZF2 it was 60 to 80%.
“(3S)-3-(3′,3′-difluoro-1′-((1-methyl-1H-indazol-6-yl)methyl)-3-oxo-1,3,7,8-tetrahydro-2H-spiro[cyclopenta[e]isoindole-6,4′-piperidin]-2-yl)piperidine-2,6-dione [Compound B34]”: the IC50 in experiment [1] was 100 to 500 nM. Moreover, at IKZF1, the “IKZF1 HiBit degradation Dmax” value is listed as “C (C: <20%)” and the DC50 is more than 1000 nM. In addition, at IKZF2, the “IKZF2 HiBit degradation Dmax” value was “B (B: 60-80%)” and the DC50 fell in the range of 1 to 10 nM.
With `O=C1CC[C@H](N2Cc3c(ccc4c3OCC43CCN(Cc4cn(-c5ccc(Cl)cc5)nc4Cl)CC3)C2=O)C(=O)N1` [Compound B4, (S)-3-(1′-((3-chloro-1-(4-chlorophenyl)-1H-pyrazol-4-yl)methyl)-6-oxo-6,8-dihydro-2H,7H-spiro[furo[2,3-e]isoindole-3,4′-piperidin]-7-yl)piperidine-2,6-dione], the IC50 in experiment [1] fell in the range of 500 to 1000 nM. Besides, the DC50 is more than 1000 nM at IKZF1 and 1 to 10 nM on IKZF2. Moreover, the Dmax on IKZF1 was less than 20%; at IKZF2, 60 to 80%.
The compound “(3S)-3-(1′-((1H-indazol-6-yl)methyl)-3′,3′-difluoro-3-oxo-1,3,7,8-tetrahydro-2H-spiro[cyclopenta[e]isoindole-6,4′-piperidin]-2-yl)piperidine-2,6-dione [Compound B33]” displayed an IC50 in experiment [1] of 100 to 500 nM. At IKZF1, the “IKZF1 HiBit degradation Dmax” value was “C (C: <20%)” and the DC50 is more than 1000 nM. On IKZF2, the “IKZF2 HiBit degradation Dmax” value is “B (B: 60-80%)” and the DC50 lay within 1 to 10 nM.

The values above are taken from US20250215012A1, “IKZF2 DEGRADERS AND USES THEREOF” (REGENTS OF THE UNIVERSITY OF MICHIGAN, priority 2022, published 2025).
